One experiment deals with injured Achilles tendon. The experiment in a line: Rat model of Achilles tendon injury, histology (H&E) and histopathological score. Format: in vivo. The following applies: 1 week postoperative. An excerpt:
Representative micrographs of the histopathological analysis by H&E staining. H&E-stained sections in higher magnification show uninjured tendon tissue with a relative scarcity of cells among the collagen fibers.
(A) Representative H&E-stained longitudinal sections in higher magnification show the nuclei morphologies in uninjured tendon tissue and injured tendon treated with vehicle/alginate and 29-mer/alginate for 1 week. (B) Histopathological scores. Total scores were determining by fiber structure, fiber arrangement, rounding of the nuclei, resident cell density and inflammation (infiltration of inflammatory cells, neovascularization and fatty deposits). Data are reported as mean±SE. *P<0.0005 versus vehicle/alginate-treated tendon; ^#P<0.05 versus 29-mer/alginate-treated tendon.
To investigate the effects of the 29-mer peptide on tendon healing, a rat model of Achilles tendon injury was established as reported by Orhan et al. (The effect of extracorporeal shock waves on a rat model of injury to tendon Achilles. A histological and biomechanical study. J. Bone Joint Surg. Br. 2004;.86(4):.613-618). Adult 10-week-old male Sprague-Dawley rats (initial body weight=312±11 g) were anesthetized by an intraperitoneal injection of xylazine (10 mg/kg). Then, the left tendo Achilles injury was created by full-thickness insertion of an 18-G needle through tendo Achilles 1 cm proximal to the calcaneum attachment site. This created a horizontal wound that was flanked by intact tendon tissue to prevent the retraction of severed ends. The skin incision was closed after the wound was irrigated with sterile saline. Treatments were applied to area around the tendon lesion by subcutaneous injection with 150 μl of alginate gel mixed with 100 μM 29-mer or DMSO vehicle (six rats per experimental condition).
The tendon and surrounding soft tissue were dissected. Specimens were fixed in a 4% paraformaldehyde (PFA) solution and then were embedded in paraffin blocks. Sections (5 μm in thickness) were longitudinally cut and stained with hematoxylin and eosin (H&E) or used for immunohistochemical examination. 36 sections per tendon were carefully prepared so as to include the most severely degenerated area. Images were captured using a Nikon Eclipse 80i microscope (Nikon Corporation, Tokyo, Japan) equipped with a Leica DC 500 camera (Leica Microsystems, Wetzlar, Germany). Four sections of each sample containing injured tendon tissues were selected and evaluated by two blinded observers to assess the tendon morphology according to a modified semi-quantitative grading score from 0 to 3 proposed by Chen et al. (Tendon derived stem cells promote platelet-rich plasma healing in collagenase-induced rat Achilles tendinopathy. Cell Physiol. Biochem., 2014; 34(6): 2153-68). The scores analyzed the fiber structure (0-3), fiber arrangement (0-3), rounding of the nuclei (0-3), resident cell density (0-3), and inflammation (0-3; infiltration of inflammatory cells, neovascularization and fatty deposits). According to this grading system, a perfectly normal tendon obtained a score of 0, whereas a score of 15 was assigned to maximally abnormal tendons.
To investigate the therapeutic effect of the 29-mer peptide on injured tendon, a rat model of Achilles tendon injury was established by full-thickness insertion of an 18-G needle through the tendon Achilles. We delivered the 29-mer in a 150 μl alginate gel, which releases 90% loaded 29-mer in 5 days as described in a previous protocol (Ho et al., PEDF-derived peptide promotes skeletal muscle regeneration through its mitogenic effect on muscle progenitor cells. Am J Physiol. Cell Physiol. 2015 Aug. 1; 309(3): C159-68).

The next experiment deals with tendon rupture. The following applies: rat model; previous study; cited from earlier work.
The subject of another experiment is cyclin D1. Put plainly: Western blot analysis of cyclin D1 expression in TSPC. Format: cell-based, rabbit. The following applies: TSPC treated 24 h; compared with solvent-treated cells; normalized to β-actin. The procedure:
Primary rabbit TSPC were treated with 10NM 29-mer or its variants for 24 h. Representative blots (A) and densitometric analysis with the SD (B) from three independent experiments are shown. Cyclin D1 expression was normalized to ([…]. *P<0.01 vs. solvent-treated cells. ^#P<0.05 vs. 29-mer-treated cells.
Achilles tendons from New Zealand White rabbits (6-8 months old, 3.0-4.0 kg) were used in this study. Achilles tendons were washed two times with sterile phosphate-buffered saline (PBS) containing 50 μg/ml gentamicin. The tendon and tendon sheath were cut into small pieces (1-2 mm^3). Each 100 mg of fragment was then digested in a solution containing 3 mg/ml of type I collagenase and 4 mg/ml of dispase in 1 ml balance salt solution (BSS; Alcone) at 37° C. for 4 hours. The digested tissues were washed three times with PBS and collected by centrifugation (800 g for 10 min). The digested tissues were placed in tissue-culture plates (Falcon Labware; NJ, USA) and resuspended in high-glucose DMEM supplemented with 10% FBS and 50 μg/ml gentamycin, and maintained at 37° C. with 5% CO2. After 5 days, the medium was changed to remove the loosened tissue residues. Subsequently, tendon cells were incubated with 10% FBS medium for 2 days, and then cultured with a basal medium (2% FBS, 1% ITSE, 300 μg/ml L-glutamine, 1% antibiotic-antimicotic solutions) for further 10 days. Culture medium was changed every 3 days. For passage, tendon cells were harvested with 0.25% trypsin/EDTA, cell counting by haemocytometer, approximately 5×10^3 cells were seeded in each well of a 96-well cell culture plate or 2×10^5 cells were seeded in each well of a 6-well cell culture plate for 24 h. These expanded tendon cells were then treated with 10 μM 29-mer or its variants in fresh basal medium for further 24 h and subjected to cell proliferation assay and western blot analysis, respectively.
Cell lysis, SDS-PAGE, and antibodies used for immunoblotting were performed as described (Ho et al., 15-deoxy-Delta(12,14)-prostaglandin J2 induces vascular endothelial cell apoptosis through the sequential activation of MAPKS and p53. J Biol. Chem., 2008; 283(44): 30273-30288). The band intensity in immunoblot was evaluated with a Model GS-700 imaging densitometer (Bio-Rad Laboratories, Hercules, Calif.) and analyzed using Labworks 4.0 software.
However, the 29-mer effect on cyclin D1 protein induction was almost abolished by alanine/glycine replacement at residue S93, A96, Q98, 1103, 1104 and R106, respectively (1.3±0.1, 1.5±0.3, 1.3±0.1, 0.9±0.1, 1.3±0.2, and 1.0±0.3). […] The data also imply that the PDSP at positions Ser93, Ala96, Gln98, Ile103, Ile104, and Arg106 are important for sustaining the PDSP effect on induction of TSPC proliferation.

For experiment [1], the system named is cultured tendon stem/progenitor cells (TSPC). The following applies: peptide added in culture medium; previous study; cited from earlier work.

Turning to “SLGAEQRTESIIHRALYYDLISSPDIHGT (listed as Homo sapiens) [29-mer, PEDF-derived short peptide, human PEDF residues 93-121]”, the total histopathological score in the experiment with injured Achilles tendon (peptide/alginate gel, 0 = normal tendon, 15 = maximally abnormal, vehicle/alginate 12.7±0.6) worked out at 7.9±0.4. In the experiment on injured Achilles tendon (subcutaneous 150 μl alginate gel with 100 μM peptide), the “histological appearance of treated tendon (H&E staining)” value is recorded as “uniform appearance of well-aligned collagen fibers”. In the experiment on tendon rupture, the “healing of tendon rupture” value was “facilitated healing of tendon rupture”. Further, in the experiment on cyclin D1, the “induction of the cyclin D1 protein” value was 2.9±0.5 fold. For the same sequence, in experiment [1], the “induction of cultured TSPC proliferation” value was “able to induce cultured tendon stem/progenitor cells (TSPC) proliferation”.

These data come from US20210244791A1, “APPLICATION OF PEDF-DERIVED SHORT PEPTIDES IN TENDON HEALING” (BRIM Biotechnology, Inc., priority 2018, published 2021).
